Laboratory results reported in the kinase profiling compilation of Christmann-Franck et al. (2016).

Legend:
Assay in all cases: radiometric filter-binding kinase assay, Kinase HotSpot
Conditions in all cases: compound 0.5 µM; ATP 10 µM
FGR (human) = FGR (human) (UniProt P09769)
GRK5 (human) = GRK5 (human) (UniProt P34947)
CLK2 (human) = CLK2 (human) (UniProt P49760)
IKBKE (human) = IKBKE (human) (UniProt Q14164)
DAPK1 (human) = DAPK1 (human) (UniProt P53355)
MUSK (human) = MUSK (human) (UniProt O15146)
YES1 (human) = YES1 (human) (UniProt P07947)
AURKA (human) = AURKA (human) (UniProt O14965)
TYRO3 (human) = TYRO3 (human) (UniProt Q06418)
PDPK1 (human) = PDPK1 (human) (UniProt O15530)
MAPKAPK5 (human) = MAPKAPK5 (human) (UniProt Q8IW41)
WNK2 (human) = WNK2 (human) (UniProt Q9Y3S1)
MAPK14 (human) = MAPK14 (human) (UniProt Q16539)
MAP4K5 (human) = MAP4K5 (human) (UniProt Q9Y4K4)
PAK4 (human) = PAK4 (human) (UniProt O96013)
EPHB4 (human) = EPHB4 (human) (UniProt P54760)
PIM1 (human) = PIM1 (human) (UniProt P11309)
PIM3 (human) = PIM3 (human) (UniProt Q86V86)
FRK (human) = FRK (human) (UniProt P42685)
PHKG1 (human) = PHKG1 (human) (UniProt Q16816)
INSR (human) = INSR (human) (UniProt P06213)
MARK2 (human) = MARK2 (human) (UniProt Q7KZI7)
GSG2 (human) = GSG2 (human) (UniProt Q8TF76)
MAPK11 (human) = MAPK11 (human) (UniProt Q15759)
FGFR1 (human) = FGFR1 (human) (UniProt P11362)
MAPK13 (human) = MAPK13 (human) (UniProt O15264)
EPHA8 (human) = EPHA8 (human) (UniProt P29322)
MAP3K7 TAB1 (human) = MAP3K7 TAB1 (human) (UniProt O43318+Q15750)
TGFBR1 (human) = TGFBR1 (human) (UniProt P36897)
RPS6KA3 KD1 KD2 (human) = RPS6KA3 KD1 KD2 (human) (UniProt P51812)
PRKG2 (human) = PRKG2 (human) (UniProt Q13237)
PLK3 (human) = PLK3 (human) (UniProt Q9H4B4)
[1] = biological target: JAK1 JH1 catalytic (human) (UniProt P23458)
PRKCA (human) = PRKCA (human) (UniProt P17252)
PRKCH (human) = PRKCH (human) (UniProt P24723)
CDK5 CDK5R1 p35 (human) = CDK5 CDK5R1 p35 (human) (UniProt Q00535+Q15078)
MARK1 (human) = MARK1 (human) (UniProt Q9P0L2)
PLK2 (human) = PLK2 (human) (UniProt Q9NYY3)
SGK2 (human) = SGK2 (human) (UniProt Q9HBY8)
PRKCD (human) = PRKCD (human) (UniProt Q05655)
ALK (human) = ALK (human) (UniProt Q9UM73)
FES (human) = FES (human) (UniProt P07332)

Chain of MARK2 (human) (Q7KZI7 whole entry, looked up): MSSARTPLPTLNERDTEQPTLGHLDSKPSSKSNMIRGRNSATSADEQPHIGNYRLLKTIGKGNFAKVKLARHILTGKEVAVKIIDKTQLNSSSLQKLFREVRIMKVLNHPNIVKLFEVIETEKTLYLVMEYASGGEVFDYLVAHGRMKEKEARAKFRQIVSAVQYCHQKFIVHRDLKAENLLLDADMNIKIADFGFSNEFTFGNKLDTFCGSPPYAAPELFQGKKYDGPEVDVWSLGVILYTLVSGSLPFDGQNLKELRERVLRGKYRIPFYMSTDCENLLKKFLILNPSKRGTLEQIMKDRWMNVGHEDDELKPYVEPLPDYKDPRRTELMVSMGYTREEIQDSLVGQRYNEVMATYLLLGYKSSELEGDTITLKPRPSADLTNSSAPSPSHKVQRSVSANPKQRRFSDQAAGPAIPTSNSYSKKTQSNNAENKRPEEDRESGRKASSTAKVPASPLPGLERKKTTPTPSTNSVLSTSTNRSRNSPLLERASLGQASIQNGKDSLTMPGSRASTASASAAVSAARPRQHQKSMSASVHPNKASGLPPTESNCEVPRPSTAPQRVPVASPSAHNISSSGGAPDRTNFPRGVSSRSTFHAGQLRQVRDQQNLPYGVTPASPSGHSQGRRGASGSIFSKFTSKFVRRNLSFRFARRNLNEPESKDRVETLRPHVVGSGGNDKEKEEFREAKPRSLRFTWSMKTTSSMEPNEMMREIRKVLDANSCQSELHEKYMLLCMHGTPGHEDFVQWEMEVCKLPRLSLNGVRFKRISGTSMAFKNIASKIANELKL
Chain of PRKCH (human) (P24723 whole entry, looked up): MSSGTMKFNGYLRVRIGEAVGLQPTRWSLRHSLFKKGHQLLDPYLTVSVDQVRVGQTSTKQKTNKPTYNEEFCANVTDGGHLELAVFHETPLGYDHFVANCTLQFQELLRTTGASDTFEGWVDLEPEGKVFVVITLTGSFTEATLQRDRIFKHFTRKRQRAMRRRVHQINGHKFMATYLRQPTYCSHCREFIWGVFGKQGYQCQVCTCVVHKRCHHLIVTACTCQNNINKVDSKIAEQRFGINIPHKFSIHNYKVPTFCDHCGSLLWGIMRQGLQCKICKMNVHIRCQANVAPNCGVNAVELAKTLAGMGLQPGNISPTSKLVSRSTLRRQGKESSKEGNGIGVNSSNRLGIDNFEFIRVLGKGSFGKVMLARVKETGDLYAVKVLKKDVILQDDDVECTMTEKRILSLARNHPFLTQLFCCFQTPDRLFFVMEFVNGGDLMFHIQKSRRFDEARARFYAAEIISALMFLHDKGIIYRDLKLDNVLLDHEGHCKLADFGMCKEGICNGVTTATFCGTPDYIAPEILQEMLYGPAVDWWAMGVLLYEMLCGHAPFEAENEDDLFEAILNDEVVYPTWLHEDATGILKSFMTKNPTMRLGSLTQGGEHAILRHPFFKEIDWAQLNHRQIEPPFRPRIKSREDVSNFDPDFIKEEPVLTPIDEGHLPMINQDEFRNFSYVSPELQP
Chain of IKBKE (human) (Q14164 whole entry, looked up): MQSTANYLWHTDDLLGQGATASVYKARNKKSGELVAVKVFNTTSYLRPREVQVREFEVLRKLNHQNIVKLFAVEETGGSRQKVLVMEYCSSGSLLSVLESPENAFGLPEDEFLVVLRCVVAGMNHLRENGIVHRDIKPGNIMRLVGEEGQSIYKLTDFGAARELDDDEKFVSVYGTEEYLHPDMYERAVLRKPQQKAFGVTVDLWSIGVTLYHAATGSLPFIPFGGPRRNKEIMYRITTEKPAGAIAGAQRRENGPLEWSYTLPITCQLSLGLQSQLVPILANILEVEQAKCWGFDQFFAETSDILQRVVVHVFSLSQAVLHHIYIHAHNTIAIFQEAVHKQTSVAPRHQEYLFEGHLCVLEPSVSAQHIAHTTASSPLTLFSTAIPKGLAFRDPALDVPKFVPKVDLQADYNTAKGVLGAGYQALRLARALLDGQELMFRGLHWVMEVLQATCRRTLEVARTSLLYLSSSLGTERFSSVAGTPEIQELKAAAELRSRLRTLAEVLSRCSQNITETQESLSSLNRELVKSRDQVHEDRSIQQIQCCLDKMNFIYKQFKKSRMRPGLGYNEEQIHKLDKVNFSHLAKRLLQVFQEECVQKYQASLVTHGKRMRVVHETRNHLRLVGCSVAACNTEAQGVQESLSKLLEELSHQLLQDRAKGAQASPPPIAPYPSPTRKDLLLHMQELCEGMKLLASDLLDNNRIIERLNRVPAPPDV
Chain of DAPK1 (human) (P53355 whole entry, looked up): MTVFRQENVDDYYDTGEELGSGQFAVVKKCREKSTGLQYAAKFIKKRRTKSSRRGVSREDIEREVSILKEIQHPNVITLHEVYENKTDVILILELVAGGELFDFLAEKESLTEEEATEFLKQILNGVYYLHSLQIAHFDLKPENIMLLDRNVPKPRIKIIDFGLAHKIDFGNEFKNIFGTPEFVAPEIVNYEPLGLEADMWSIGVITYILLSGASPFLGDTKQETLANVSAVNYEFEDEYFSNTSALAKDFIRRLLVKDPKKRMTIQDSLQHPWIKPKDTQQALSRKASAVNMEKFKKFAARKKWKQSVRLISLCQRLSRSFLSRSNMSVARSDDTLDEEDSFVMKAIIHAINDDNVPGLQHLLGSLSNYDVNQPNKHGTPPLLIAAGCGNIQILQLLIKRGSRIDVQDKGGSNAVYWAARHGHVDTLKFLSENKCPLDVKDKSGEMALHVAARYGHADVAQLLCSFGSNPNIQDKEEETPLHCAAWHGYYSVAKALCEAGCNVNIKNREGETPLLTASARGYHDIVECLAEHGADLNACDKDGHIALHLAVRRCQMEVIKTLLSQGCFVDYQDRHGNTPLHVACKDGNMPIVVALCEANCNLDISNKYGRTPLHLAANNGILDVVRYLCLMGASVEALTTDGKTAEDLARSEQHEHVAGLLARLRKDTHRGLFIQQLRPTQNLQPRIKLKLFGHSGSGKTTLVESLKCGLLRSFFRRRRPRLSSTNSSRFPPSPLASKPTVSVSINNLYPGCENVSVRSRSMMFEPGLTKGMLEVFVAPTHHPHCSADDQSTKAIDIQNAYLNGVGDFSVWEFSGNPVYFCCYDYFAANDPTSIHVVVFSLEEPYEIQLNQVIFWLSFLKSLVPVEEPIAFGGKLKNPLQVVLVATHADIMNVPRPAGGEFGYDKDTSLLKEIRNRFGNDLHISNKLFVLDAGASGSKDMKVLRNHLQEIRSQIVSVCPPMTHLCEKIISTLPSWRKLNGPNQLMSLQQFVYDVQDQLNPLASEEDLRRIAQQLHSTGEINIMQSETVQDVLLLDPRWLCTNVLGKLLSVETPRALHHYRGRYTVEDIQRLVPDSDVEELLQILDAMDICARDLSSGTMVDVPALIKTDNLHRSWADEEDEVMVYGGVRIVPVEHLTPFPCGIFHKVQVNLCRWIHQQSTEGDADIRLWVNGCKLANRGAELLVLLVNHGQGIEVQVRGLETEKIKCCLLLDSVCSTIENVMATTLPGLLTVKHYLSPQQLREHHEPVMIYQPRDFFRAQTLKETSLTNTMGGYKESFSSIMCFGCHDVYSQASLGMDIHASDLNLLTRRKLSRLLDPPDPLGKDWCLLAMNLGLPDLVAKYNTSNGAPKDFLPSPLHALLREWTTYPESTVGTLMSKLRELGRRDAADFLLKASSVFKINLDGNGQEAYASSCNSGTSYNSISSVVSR
Chain of INSR (human) (P06213 whole entry, looked up): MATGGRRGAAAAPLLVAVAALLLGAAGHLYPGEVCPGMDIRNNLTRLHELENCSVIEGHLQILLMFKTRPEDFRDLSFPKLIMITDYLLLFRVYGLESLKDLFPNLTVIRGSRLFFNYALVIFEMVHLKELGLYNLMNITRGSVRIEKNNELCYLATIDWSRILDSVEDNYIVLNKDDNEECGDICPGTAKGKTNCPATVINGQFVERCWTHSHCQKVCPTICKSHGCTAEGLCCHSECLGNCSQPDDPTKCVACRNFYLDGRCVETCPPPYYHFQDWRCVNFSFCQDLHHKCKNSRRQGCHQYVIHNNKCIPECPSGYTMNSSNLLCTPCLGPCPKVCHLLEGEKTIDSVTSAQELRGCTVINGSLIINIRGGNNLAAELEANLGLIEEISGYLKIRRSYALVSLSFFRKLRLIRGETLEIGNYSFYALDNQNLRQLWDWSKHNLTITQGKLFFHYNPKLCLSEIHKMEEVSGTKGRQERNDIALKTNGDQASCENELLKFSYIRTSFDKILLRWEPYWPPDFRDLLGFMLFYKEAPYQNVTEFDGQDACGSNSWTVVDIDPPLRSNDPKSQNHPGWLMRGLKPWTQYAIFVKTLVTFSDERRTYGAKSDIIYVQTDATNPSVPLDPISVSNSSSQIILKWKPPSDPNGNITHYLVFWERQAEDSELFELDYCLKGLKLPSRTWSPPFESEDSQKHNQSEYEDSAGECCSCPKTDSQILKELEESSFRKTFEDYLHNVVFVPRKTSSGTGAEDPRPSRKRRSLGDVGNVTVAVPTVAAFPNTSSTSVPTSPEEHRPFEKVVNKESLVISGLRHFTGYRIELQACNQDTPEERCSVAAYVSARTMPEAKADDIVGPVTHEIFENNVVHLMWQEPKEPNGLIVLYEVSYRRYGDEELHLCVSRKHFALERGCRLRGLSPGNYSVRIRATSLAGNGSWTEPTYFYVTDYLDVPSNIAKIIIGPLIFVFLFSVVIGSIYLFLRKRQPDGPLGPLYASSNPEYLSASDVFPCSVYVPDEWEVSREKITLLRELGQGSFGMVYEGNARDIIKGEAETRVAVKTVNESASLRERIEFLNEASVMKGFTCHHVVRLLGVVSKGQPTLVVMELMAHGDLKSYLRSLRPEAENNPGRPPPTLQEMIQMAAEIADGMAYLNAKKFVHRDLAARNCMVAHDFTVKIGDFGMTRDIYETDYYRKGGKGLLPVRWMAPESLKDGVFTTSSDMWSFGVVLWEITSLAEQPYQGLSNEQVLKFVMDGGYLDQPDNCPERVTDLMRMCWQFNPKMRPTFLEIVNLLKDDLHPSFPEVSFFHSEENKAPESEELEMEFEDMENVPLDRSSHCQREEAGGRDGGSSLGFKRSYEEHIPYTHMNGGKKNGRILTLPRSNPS

Compound: O=C(Nc1ccc(Cl)cc1)c1ccccc1NCc1ccncc1
- residual activity (FGR (human)): 83.8%
- residual activity (GRK5 (human)): 97.3%
- residual activity (CLK2 (human)): 91.8%
- residual activity (IKBKE (human)): 98.9%
- residual activity (DAPK1 (human)): 99.9%
- residual activity (MUSK (human)): 95.9%
- residual activity (YES1 (human)): 95.3%
- residual activity (AURKA (human)): 84.4%
- residual activity (TYRO3 (human)): 105%
- residual activity (PDPK1 (human)): 95.3%
- residual activity (MAPKAPK5 (human)): 88.7%
- residual activity (WNK2 (human)): 101%
- residual activity (MAPK14 (human)): 128%
- residual activity (MAP4K5 (human)): 95.8%
- residual activity (PAK4 (human)): 90.6%
- residual activity (EPHB4 (human)): 89.6%
- residual activity (PIM1 (human)): 98.9%
- residual activity (PIM3 (human)): 93%
- residual activity (FRK (human)): 62.8%
- residual activity (PHKG1 (human)): 94.2%
- residual activity (INSR (human)): 88%
- residual activity (MARK2 (human)): 92.7%
- residual activity (GSG2 (human)): 95.5%
- residual activity (MAPK11 (human)): 91.4%
- residual activity (FGFR1 (human)): 83.7%
- residual activity (MAPK13 (human)): 95.6%
- residual activity (EPHA8 (human)): 87.6%
- residual activity (MAP3K7 TAB1 (human)): 98.1%
- residual activity (TGFBR1 (human)): 100%
- residual activity (RPS6KA3 KD1 KD2 (human)): 91.4%
- residual activity (PRKG2 (human)): 99.1%
- residual activity (PLK3 (human)): 98.5%
- residual activity [1]: 91.8%
- residual activity (PRKCA (human)): 96.7%
- residual activity (PRKCH (human)): 96.2%
- residual activity (CDK5 CDK5R1 p35 (human)): 90.4%
- residual activity (MARK1 (human)): 94.7%
- residual activity (PLK2 (human)): 99.3%
- residual activity (SGK2 (human)): 103%
- residual activity (PRKCD (human)): 84.7%
- residual activity (ALK (human)): 103%
- residual activity (FES (human)): 96.6%
